Among the data in the supplement of paper PMC10307832 are relative viability values, retold here.

Common to all, as to experiment: relative viability (nuclei count vs DMSO), 5 days (fraction); higher = more cells survive
Compound in the assay “BGJ398 + Foretinib”: CCN1CCN(c2ccc(Nc3cc(N(C)C(=O)Nc4c(Cl)c(OC)cc(OC)c4Cl)ncn3)cc2)CC1 [BGJ398] + COc1cc2c(Oc3ccc(NC(=O)C4(C(=O)Nc5ccc(F)cc5)CC4)cc3F)ccnc2cc1OCCCN1CCOCC1 [Foretinib] (partner 0.25 µM)
An outline of the steps:
(§1)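 The day after seeding in 1536-well plates, lung cancer cell lines were treated by pin tool with a single drug, or with a fixed anchor-drug dose together with five library-drug doses (not always all listed) in √10 steps. After 5 days, a combined fix-and-stain solution (final 0.05% Triton X-100, 1% formaldehyde, 1 ug/ml Hoechst) was added. Nuclei counted on 4× images gave relative viability as treated counts over vehicle counts, reported as the median of duplicate plates.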

Compound in the assay “BGJ398 + Linsitinib”: CCN1CCN(c2ccc(Nc3cc(N(C)C(=O)Nc4c(Cl)c(OC)cc(OC)c4Cl)ncn3)cc2)CC1 [BGJ398] + C[C@]1(O)C[C@@H](c2nc(-c3ccc4ccc(-c5ccccc5)nc4c3)c3c(N)nccn32)C1 [Linsitinib] (partner 1 µM)
An outline of the steps:
as §1

Compound in assay [1]: C1=CC2=NC=CN=C2C=C1/C=C/3\C(=O)NC(=O)S3 + Cc1cc(Nc2cc(N3CCN(C)CC3)nc(Sc3ccc(NC(=O)C4CC4)cc3)n2)n[nH]1 [Tozasertib] (partner 0.1 µM)
The essentials: as §1

Compound in the assay “BGJ398 + Bortezomib”: CCN1CCN(c2ccc(Nc3cc(N(C)C(=O)Nc4c(Cl)c(OC)cc(OC)c4Cl)ncn3)cc2)CC1 [BGJ398] + CC(C)C[C@H](NC(=O)[C@H](Cc1ccccc1)NC(=O)c1cnccn1)B(O)O [Bortezomib] (partner 0.002 µM)
The essentials:
as §1

With NCI-H1395, the relative viability with BGJ398 + Foretinib (first compound 0.01 µM) was determined as 0.877; with BGJ398 + Foretinib (first compound 0.03162 µM), 0.955; with BGJ398 + Foretinib (first compound 0.1 µM) it was 0.819; in the assay with BGJ398 + Foretinib (first compound 0.3162 µM), 0.756; with BGJ398 + Foretinib (first compound 1 µM), 0.614; with BGJ398 + Linsitinib (first compound 0.01 µM), 1.15. The relative viability with BGJ398 + Linsitinib (first compound 0.03162 µM) worked out at 1.24; in the assay with BGJ398 + Linsitinib (first compound 0.1 µM) it was 0.977; with BGJ398 + Linsitinib (first compound 0.3162 µM), 0.939; with BGJ398 + Linsitinib (first compound 1 µM), 0.797; in assay [1] (first compound 0.02 µM), 0.725; in assay [1] (first compound 0.06325 µM) it was 0.794. Further, the values for the relative viability in assay [1] (first compound 0.2 µM), in assay [1] (first compound 0.6325 µM) and in assay [1] (first compound 2 µM) were 0.777, 0.729 and 0.809, respectively.

As to NCI-H1563, the relative viability amounted to 0.924 with BGJ398 + Foretinib (first compound 0.01 µM); 0.931 with BGJ398 + Foretinib (first compound 0.03162 µM); 0.946 with BGJ398 + Foretinib (first compound 0.1 µM); 0.814 with BGJ398 + Foretinib (first compound 0.3162 µM); 0.752 with BGJ398 + Foretinib (first compound 1 µM); 1.17 in the assay with BGJ398 + Linsitinib (first compound 0.01 µM). Further, the relative viability came to 1.18 in the assay with BGJ398 + Linsitinib (first compound 0.03162 µM); 0.947 with BGJ398 + Linsitinib (first compound 0.1 µM); 0.792 with BGJ398 + Linsitinib (first compound 0.3162 µM); 0.724 with BGJ398 + Linsitinib (first compound 1 µM); 0.931 with BGJ398 + Bortezomib (first compound 0.01 µM); 0.802 with BGJ398 + Bortezomib (first compound 0.03162 µM). In addition, the figures for the relative viability in the assay with BGJ398 + Bortezomib (first compound 0.1 µM), in the assay with BGJ398 + Bortezomib (first compound 0.3162 µM) and with BGJ398 + Bortezomib (first compound 1 µM) were 0.778, 0.674 and 0.71, respectively.

For NCI-H1648, the relative viability is 0.408 in assay [1] (first compound 0.02 µM), 0.629 in assay [1] (first compound 0.2 µM), 0.404 in assay [1] (first compound 0.6325 µM) and 0.416 in assay [1] (first compound 2 µM).

As to NCI-H1650, the relative viability is 1.31 with BGJ398 + Foretinib (first compound 0.01 µM); 1.17 in the assay with BGJ398 + Foretinib (first compound 0.1 µM); 0.857 in the assay with BGJ398 + Foretinib (first compound 0.3162 µM); 1.08 in the assay with BGJ398 + Foretinib (first compound 1 µM); 0.434 in assay [1] (first compound 0.02 µM); 0.446 in assay [1] (first compound 0.06325 µM). The relative viability in assay [1] (first compound 0.2 µM) was determined as 0.459; in assay [1] (first compound 0.6325 µM) it was 0.375; in assay [1] (first compound 2 µM), 0.411; with BGJ398 + Bortezomib (first compound 0.01 µM) it was 0.22; in the assay with BGJ398 + Bortezomib (first compound 0.03162 µM) it was 0.203; with BGJ398 + Bortezomib (first compound 0.1 µM), 0.184. The figures for the relative viability in the assay with BGJ398 + Bortezomib (first compound 0.3162 µM) and in the assay with BGJ398 + Bortezomib (first compound 1 µM) were 0.174 and 0.19, respectively.

As to NCI-H1703, the relative viability came to 0.37 in the assay with BGJ398 + Foretinib (first compound 0.01 µM); 0.329 with BGJ398 + Foretinib (first compound 0.03162 µM); 0.342 in the assay with BGJ398 + Foretinib (first compound 0.1 µM); 0.278 with BGJ398 + Foretinib (first compound 0.3162 µM); 0.331 with BGJ398 + Foretinib (first compound 1 µM); 0.811 with BGJ398 + Linsitinib (first compound 0.01 µM). In addition, the relative viability came out at 0.497 with BGJ398 + Linsitinib (first compound 0.03162 µM); 0.699 with BGJ398 + Linsitinib (first compound 0.1 µM); 0.569 with BGJ398 + Linsitinib (first compound 0.3162 µM); 0.705 with BGJ398 + Linsitinib (first compound 1 µM); 0.451 with BGJ398 + Bortezomib (first compound 0.01 µM); 0.467 with BGJ398 + Bortezomib (first compound 0.03162 µM). Also, the relative viability with BGJ398 + Bortezomib (first compound 0.1 µM) came out at 0.253; with BGJ398 + Bortezomib (first compound 0.3162 µM), 0.261; with BGJ398 + Bortezomib (first compound 1 µM), 0.457.

With NCI-H1792, the relative viability with BGJ398 + Linsitinib (first compound 0.01 µM) was found to be 0.482; with BGJ398 + Linsitinib (first compound 0.03162 µM) it was 0.511; in the assay with BGJ398 + Linsitinib (first compound 0.1 µM) it was 0.551; with BGJ398 + Linsitinib (first compound 0.3162 µM) it was 0.63; with BGJ398 + Linsitinib (first compound 1 µM) it was 0.287; with BGJ398 + Bortezomib (first compound 0.01 µM), 0.936. The relative viability was found to be 0.963 with BGJ398 + Bortezomib (first compound 0.03162 µM), 1.11 with BGJ398 + Bortezomib (first compound 0.1 µM), 0.926 with BGJ398 + Bortezomib (first compound 0.3162 µM) and 0.942 with BGJ398 + Bortezomib (first compound 1 µM).

In the case of NCI-H1793, the relative viability with BGJ398 + Foretinib (first compound 0.01 µM) was 0.725; with BGJ398 + Foretinib (first compound 0.03162 µM) it was 0.579; with BGJ398 + Foretinib (first compound 0.1 µM) it was 0.557; in the assay with BGJ398 + Foretinib (first compound 0.3162 µM) it was 0.725; with BGJ398 + Foretinib (first compound 1 µM) it was 0.666; with BGJ398 + Linsitinib (first compound 0.01 µM) it was 0.804. The relative viability came to 0.833 with BGJ398 + Linsitinib (first compound 0.1 µM); 0.71 with BGJ398 + Linsitinib (first compound 0.3162 µM); 0.756 with BGJ398 + Linsitinib (first compound 1 µM); 0.392 in assay [1] (first compound 0.02 µM); 0.273 in assay [1] (first compound 0.06325 µM); 0.38 in assay [1] (first compound 0.2 µM). Further, the relative viability was 0.324 in assay [1] (first compound 0.6325 µM) and 0.281 in assay [1] (first compound 2 µM).

NCI-H1944: the relative viability with BGJ398 + Foretinib (first compound 0.01 µM) came out at 0.946; in the assay with BGJ398 + Foretinib (first compound 0.03162 µM) it was 0.889; in the assay with BGJ398 + Foretinib (first compound 0.1 µM) it was 0.941; in the assay with BGJ398 + Foretinib (first compound 0.3162 µM), 0.831; in the assay with BGJ398 + Foretinib (first compound 1 µM) it was 0.826; in the assay with BGJ398 + Linsitinib (first compound 0.01 µM) it was 1.17. The relative viability in the assay with BGJ398 + Linsitinib (first compound 0.03162 µM) was found to be 1.22; with BGJ398 + Linsitinib (first compound 0.1 µM) it was 1.28; with BGJ398 + Linsitinib (first compound 0.3162 µM), 1.2; in the assay with BGJ398 + Linsitinib (first compound 1 µM), 1.28; in assay [1] (first compound 0.02 µM), 0.254; in assay [1] (first compound 0.06325 µM), 0.206. The values for the relative viability in assay [1] (first compound 0.2 µM), in assay [1] (first compound 0.6325 µM) and in assay [1] (first compound 2 µM) were 0.261, 0.239 and 0.238, respectively.

With NCI-H2170, the relative viability with BGJ398 + Foretinib (first compound 0.01 µM) was determined as 1.02; in the assay with BGJ398 + Foretinib (first compound 0.03162 µM) it was 1.04; with BGJ398 + Foretinib (first compound 0.1 µM) it was 1.06; with BGJ398 + Foretinib (first compound 0.3162 µM), 0.977; with BGJ398 + Foretinib (first compound 1 µM), 1.04; in assay [1] (first compound 0.02 µM), 0.6. The relative viability in assay [1] (first compound 0.06325 µM) is 0.697; in assay [1] (first compound 0.2 µM), 0.689; in assay [1] (first compound 0.6325 µM), 0.734; in assay [1] (first compound 2 µM), 0.795.

Take NCI-H2342: the relative viability with BGJ398 + Foretinib (first compound 0.01 µM) is 1.05; with BGJ398 + Foretinib (first compound 0.03162 µM), 0.98; in the assay with BGJ398 + Foretinib (first compound 0.1 µM), 1.08; with BGJ398 + Foretinib (first compound 0.3162 µM), 1.07; in the assay with BGJ398 + Foretinib (first compound 1 µM) it was 1.1; in assay [1] (first compound 0.02 µM), 0.438. Moreover, the relative viability in assay [1] (first compound 0.06325 µM) stood at 0.561; in assay [1] (first compound 0.2 µM), 0.688; in assay [1] (first compound 0.6325 µM), 0.465; in assay [1] (first compound 2 µM) it was 0.469.

With SK-MES-1, the relative viability with BGJ398 + Foretinib (first compound 0.01 µM) stood at 0.869; with BGJ398 + Foretinib (first compound 0.03162 µM) it was 1.08; in the assay with BGJ398 + Foretinib (first compound 0.1 µM) it was 0.971; with BGJ398 + Foretinib (first compound 0.3162 µM) it was 0.809; with BGJ398 + Foretinib (first compound 1 µM), 1.12; with BGJ398 + Linsitinib (first compound 0.01 µM), 1.01. Also, the relative viability came out at 1.12 with BGJ398 + Linsitinib (first compound 0.03162 µM); 1.09 in the assay with BGJ398 + Linsitinib (first compound 0.1 µM); 1.01 with BGJ398 + Linsitinib (first compound 0.3162 µM); 1.11 with BGJ398 + Linsitinib (first compound 1 µM); 0.894 in assay [1] (first compound 0.02 µM); 0.884 in assay [1] (first compound 0.06325 µM). Also, the relative viability in assay [1] (first compound 0.2 µM) was 0.998; in assay [1] (first compound 0.6325 µM), 0.965; in assay [1] (first compound 2 µM), 0.934.

In the case of SW 900, the relative viability worked out at 0.856 with BGJ398 + Foretinib (first compound 0.01 µM); 0.823 with BGJ398 + Foretinib (first compound 0.03162 µM); 0.895 with BGJ398 + Foretinib (first compound 0.1 µM); 0.737 in the assay with BGJ398 + Foretinib (first compound 0.3162 µM); 0.668 with BGJ398 + Foretinib (first compound 1 µM); 0.453 in assay [1] (first compound 0.02 µM). The relative viability stood at 0.607 in assay [1] (first compound 0.06325 µM), 0.702 in assay [1] (first compound 0.2 µM), 0.545 in assay [1] (first compound 0.6325 µM) and 0.566 in assay [1] (first compound 2 µM).
